From patent US20110207144A1, “IN VITRO SCREENING ASSAYS” (priority 2009, published 2011)

Test system: Human Umbilical Vein Endothelial Cell (HUVEC)
Test: HUVEC vasculogenesis/angiogenesis assay (HUVEC co-cultured with human fibroblasts, CD31 labeling of vessels)
Format: cell-based
Conditions: for all three vessel parameters relative to the control wells: 11 days, p<0.05, one way ANOVA
Method: Studies were conducted to determine the effects of anti-LOXL2 antibody AB0023 in an in vitro vasculogenesis/angiogenesis assay. For this purpose, a dose range of AB0023 was tested alongside VEGF (an angiogenesis promoter), suramin (an angiogenesis inhibitor) and media alone in a HUVECs based in vitro system. The assay was run for 11 days with media changes on days 1, 4, 7 and 9. After 11 days, wells were fixed with 70% ethanol and vessels were tested for expression of CD31, an endothelial marker. Images of 4 random fields per well were taken and the number of branch points, number of vessels and total vessel length was calculated for each well using a specialist software analysis package.
At this point (day 1), fresh endothelial cell growth medium containing the test item and controls, as detailed in Table 1, was added to wells at 0.5 ml per well. Test item and controls were added in duplicate or triplicate according to Table 1, and media-only added in triplicate acted as baseline endothelial growth control. The plate was then cultured at 37° C. and 5% CO2. On days 4, 7 and 9 the medium was removed from all wells and carefully replaced with 0.5 ml of fresh medium containing the test item and controls as detailed in Table 1. On day 11, the plates were fixed and labeled for CD31 as detailed below. On each day of the experiment the plate was visualized using an inverted microscope to ensure normal growth cells and no contamination.
After 11 days, plates were fixed by carefully aspirating medium from wells, washed with 1 ml PBS per well, and then 1 ml ice cold 70% ethanol was added for 30 minutes at room temperature. Fixative was then carefully removed and the wells were incubated with 0.5 ml mouse anti-human CD31 antibody diluted 1:400 in PBS containing 1% BSA and incubated for 60 minutes at 37° C. Wells were then washed three times with 1 ml PBS followed by incubation with 0.5 ml goat anti-mouse IgG alkaline phosphatase conjugated secondary antibody diluted 1:500 in PBS containing 1% BSA for 60 minutes at 37° C. Wells were washed a further three times with 1 ml PBS prior to incubation with 0.5 ml freshly prepared and filtered BCIP/NBT substrate for 10 minutes at 37° C. Wells were then carefully washed three times with 1 ml distilled water and left to air dry overnight.
Digital images of each well were obtained using a Nikon Coolpix camera on a Leica inverted microscope at 10× magnification. Four random fields per well were imaged, producing 96 images in total. Images were then converted to BMP files and imported into an image analysis package to measure the number of vessel branches, number of vessels and total vessel length. This is performed by thresholding the image so that only CD31-stained vessels were detected, which the software then skeletonized to produce single pixel width vessels. From these, individual vessel length, total vessel length and number of vessel branch points were determined. The data were then exported to Excel to calculate mean and standard deviation for each data set. Basic statistics were carried out using a one-way ANOVA.

Row | Compound | number of branches relative to the control group (20 μM suramin, p<0.05 one way ANOVA) | vessel formation relative to control wells (suramin 20 μM (FIG. 2)) | all three vessel parameters relative to the control wells (suramin 20 μM) | branching relative to the control group | vessel formation relative to control wells (VEGF 2 ng/ml (FIG. 4)) | all three vessel parameters relative to the control wells (VEGF 2 ng/ml)
1 | Cc1ccc(C(=O)Nc2ccc(S(=O)(=O)O)c3cc(S(=O)(=O)O)cc(S(=O)(=O)O)c23)cc1NC(=O)c1cccc(NC(=O)Nc2cccc(C(=O)Nc3cc(C(=O)Nc4ccc(S(=O)(=O)O)c5cc(S(=O)(=O)O)cc(S(=O)(=O)O)c45)ccc3C)c2)c1 [Suramin, suramin] | significant reduction | decrease in vessel formation | significant decrease |  |  | 
2 | VEGF |  |  |  | significant increase | increase in vessel formation | increase
